This experiment concerns the target IDH2 R140Q (Homo sapiens (Human), UniProt P48735, R140Q). Kind of experiment: IDH2 R140Q enzymatic cofactor depletion assay (diaphorase/resazurin). The format is biochemical. As to conditions: IDH2 R140Q enzyme, one hour preincubation with compound, one hour reaction; read-out: Enz R140Q. As to the method: The reaction was terminated by the addition of a second enzyme, diaphorase, and a corresponding substrate, resazurin. Diaphorase reduces resazurin to the highly fluorescent resorufin with the concomitant oxidation of NADPH to NADP, both halting the IDH2 reaction by depleting the available cofactor pool and facilitating quantitation of the amount of cofactor remaining after a specific time period through quantitative production of an easily detected fluorophore.
The compound was then incubated for one hour at room temperature with the enzyme; before starting the IDH2 reaction with the addition of 10 μl of substrate mix containing 50 μM NADPH and 6.3 mM α-KG in the buffer described above. After a further one hour of incubation at room temperature, the reaction was halted and the remaining NADPH measured through conversion of resazurin to resorufin by the addition of 25 μl Stop Mix (36 μg/ml diaphorase enzyme and 60 μM resazurin; in buffer). After one minute of incubation the plate was read on a plate reader at Ex544/Em590.
For orientation: The colour change of resazurin is a common sign of viable cells or microbes.
Sequence of IDH2 R140Q (P48735 40-452 R140Q): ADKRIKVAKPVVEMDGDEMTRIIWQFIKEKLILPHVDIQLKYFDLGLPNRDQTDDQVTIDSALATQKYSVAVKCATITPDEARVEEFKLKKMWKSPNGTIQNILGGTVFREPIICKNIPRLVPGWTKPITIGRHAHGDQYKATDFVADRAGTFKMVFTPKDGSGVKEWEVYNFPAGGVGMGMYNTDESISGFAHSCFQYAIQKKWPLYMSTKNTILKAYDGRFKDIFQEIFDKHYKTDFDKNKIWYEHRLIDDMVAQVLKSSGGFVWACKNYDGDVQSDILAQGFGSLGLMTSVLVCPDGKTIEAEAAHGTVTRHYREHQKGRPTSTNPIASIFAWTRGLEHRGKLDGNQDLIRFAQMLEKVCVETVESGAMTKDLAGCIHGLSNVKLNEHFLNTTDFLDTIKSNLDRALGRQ
For the compound `O=C(Nc1ccccc1Cl)Nc1cc(S(=O)(=O)NCC(F)(F)F)ccc1-c1ccccc1` [Compound 42, 2-(3-(2-chlorophenyl)ureido)-N-(2,2,2-trifluoroethyl)-[1,1′-biphenyl]-4-sulfonamide], the IC50 fell in the range of 100 to 1000 nM.
In the case of `O=C(Nc1ccccc1OC(F)(F)F)Nc1cc(S(=O)(=O)NCC(F)(F)F)ccc1-c1ccccc1` [Compound 43, N-(2,2,2-trifluoroethyl)-2-(3-(2-(trifluoromethoxy)phenyl)ureido)-[1,1′-biphenyl]-4-sulfonamide] it was 100 to 1000 nM; in that of `O=C(Nc1cccc(C(F)(F)F)c1)Nc1cc(S(=O)(=O)NCC(F)(F)F)ccc1-c1ccccc1` [Compound 44, N-(2,2,2-trifluoroethyl)-2-(3-(3-(trifluoromethyl)phenyl)ureido)-[1,1′-biphenyl]-4-sulfonamide], 100 to 1000 nM; in that of `O=C(Nc1cccc(C(F)(F)F)c1)Nc1cc(S(=O)(=O)NC2COC2)ccc1-c1ccccc1` [Compound 45, N-(oxetan-3-yl)-2-(3-(3-(trifluoromethyl)phenyl)ureido)-[1,1′-biphenyl]-4-sulfonamide], < 100 nM.
In the case of `N#CC1(NS(=O)(=O)c2ccc(-c3ccccc3)c(NC(=O)Nc3cccc(C(F)(F)F)c3)c2)CC1` [Compound 46, N-(1-cyanocyclopropyl)-2-(3-(3-(trifluoromethyl)phenyl)ureido)-[1,1′-biphenyl]-4-sulfonamide] it was 100 to 1000 nM; in that of `Cc1cccc(-c2ccc(S(=O)(=O)NC3CCOCC3)cc2NC(=O)Nc2cccc(C(F)(F)F)c2)c1` [Compound 47, 3′-methyl-N-(tetrahydro-2H-pyran-4-yl)-2-(3-(3-(trifluoromethyl)phenyl)ureido)-[1,1′-biphenyl]-4-sulfonamide], 100 to 1000 nM.
Take `Cc1cccc(-c2ccc(S(=O)(=O)NC3CC3)cc2NC(=O)Nc2cccc(C(F)(F)F)c2)c1` [Compound 48, N-cyclopropyl-3′-methyl-2-(3-(3-(trifluoromethyl)phenyl)ureido)-[1,1′-biphenyl]-4-sulfonamide]: the IC50 fell in the range of 1000 to 10000 nM.
With `O=C(Nc1cccc(C(F)(F)F)c1)Nc1cc(S(=O)(=O)Nc2ccccc2)ccc1-c1cccc(O)c1` [Compound 50, 3′-hydroxy-N-phenyl-2-(3-(3-(trifluoromethyl)phenyl)ureido)-[1,1′-biphenyl]-4-sulfonamide], the IC50 was 100 to 1000 nM.
In the case of `COc1cccc(-c2ccc(S(=O)(=O)Nc3ccccc3)cc2NC(=O)Nc2cccc(C(F)(F)F)c2)c1` [Compound 51] it was 1000 to 10000 nM; in that of `O=C(Nc1ccc(F)c(Cl)c1)Nc1cc(S(=O)(=O)NC2CC2)ccc1-c1ccccc1` [Compound 52], 1000 to 10000 nM.
The value for `O=C(Nc1ccc(F)cc1)Nc1cc(S(=O)(=O)NC2CC2)ccc1-c1ccccc1` [Compound 53] was 1000 to 10000 nM; that for `O=C(Nc1cc(S(=O)(=O)NCC(F)(F)F)ccc1-c1ccccc1)NC1CCCC1` [Compound 54] was 1000 to 10000 nM.
In the case of `O=C(Nc1ccc(F)c(Cl)c1)Nc1cc(S(=O)(=O)NCC(F)(F)F)ccc1-c1cccnc1` [Compound 55] it was 1000 to 10000 nM.
With `O=C(Nc1ccc(F)c(C(F)(F)F)c1)Nc1cc(S(=O)(=O)NCC(F)(F)F)ccc1-c1cccnc1` [Compound 56], the IC50 fell in the range of 1000 to 10000 nM.
In the case of `O=C(Nc1cccc(C(F)(F)F)c1)Nc1cc(S(=O)(=O)Nc2ccccc2)ccc1-c1cccc(Cl)c1` [Compound 57] it was 1000 to 10000 nM; in that of `CS(=O)(=O)c1cccc(-c2ccc(S(=O)(=O)Nc3ccccc3)cc2NC(=O)Nc2cccc(C(F)(F)F)c2)c1` [Compound 58], 1000 to 10000 nM.
`COc1ccc(-c2ccc(S(=O)(=O)Nc3ccccc3)cc2NC(=O)Nc2cccc(C(F)(F)F)c2)cc1` [Compound 59]: the IC50 lay in the range of 1000 to 10000 nM.
In the case of `O=C(Nc1cccc(C(F)(F)F)c1)Nc1cc(S(=O)(=O)Nc2ccccc2)ccc1-c1ccncc1` [Compound 60] it was 1000 to 10000 nM.
The value for `O=C(Nc1cccc(C(F)(F)F)c1)Nc1cc(S(=O)(=O)Nc2ccccc2)ccc1-c1cccnc1` [Compound 61] was 1000 to 10000 nM.
The value for `Cc1ccc(-c2ccc(S(=O)(=O)Nc3ccccc3)cc2NC(=O)Nc2cccc(C(F)(F)F)c2)cc1` [Compound 62] was 1000 to 10000 nM.
In the case of `O=C(Nc1cccc(C(F)(F)F)c1)Nc1cc(S(=O)(=O)Nc2ccccc2)ccc1-c1ccccc1F` [Compound 63], the IC50 lay in the range of 1000 to 10000 nM.
The value for `O=C(Nc1cccc(C(F)(F)F)c1)Nc1cc(S(=O)(=O)Nc2ccccc2)ccc1-c1cccc(F)c1` [Compound 64] was 1000 to 10000 nM; that for `O=C(Nc1cc(C(F)(F)F)ccn1)Nc1cc(S(=O)(=O)NCC(F)(F)F)ccc1-c1cccnc1` [Compound 65] was 1000 to 10000 nM; that for `O=C(Nc1cc(S(=O)(=O)NCC(F)(F)F)ccc1-c1ccccc1)NC1CCCCC1` [Compound 66, 2-(3-cyclohexylureido)-N-(2,2,2-trifluoroethyl)-[1,1′-biphenyl]-4-sulfonamide] was 100 to 1000 nM.
In the case of `CS(=O)(=O)c1cccc(NC(=O)Nc2cc(S(=O)(=O)NCC(F)(F)F)ccc2-c2ccccc2)c1` [Compound 67, 2-(3-(3-(methylsulfonyl)phenyl)ureido)-N-(2,2,2-trifluoroethyl)-[1,1′-biphenyl]-4-sulfonamide] it was 100 to 1000 nM.
As for `O=C(Nc1ccc(F)cc1F)Nc1cc(S(=O)(=O)NCC(F)(F)F)ccc1-c1ccccc1` [Compound 68, 2-(3-(2,4-difluorophenyl)ureido)-N-(2,2,2-trifluoroethyl)-[1,1′-biphenyl]-4-sulfonamide], the IC50 was 100 to 1000 nM.
The value for `O=C(Nc1ccc(F)c(C(F)(F)F)c1)Nc1cc(S(=O)(=O)NCC(F)(F)F)ccc1-c1ccccc1` [Compound 69, 2-(3-(4-fluoro-3-(trifluoromethyl)phenyl)ureido)-N-(2,2,2-trifluoroethyl)-[1,1′-biphenyl]-4-sulfonamide] was 100 to 1000 nM; that for `O=C(Nc1nccs1)Nc1cc(S(=O)(=O)NCC(F)(F)F)ccc1-c1ccccc1` [Compound 70, 2-(3-(thiazol-2-yl)ureido)-N-(2,2,2-trifluoroethyl)-[1,1′-biphenyl]-4-sulfonamide] was 100 to 1000 nM.
The value for `CC1CCCC(NC(=O)Nc2cc(S(=O)(=O)NCC(F)(F)F)ccc2-c2ccccc2)C1` (stereo not shown) [Compound 71, 2-(3-(3-methylcyclohexyl)ureido)-N-(2,2,2-trifluoroethyl)-[1,1′-biphenyl]-4-sulfonamide] was 100 to 1000 nM; that for `O=C(Nc1cc(S(=O)(=O)NCC(F)(F)F)ccc1-c1ccccc1)NC1CCCC(C(F)(F)F)C1` (stereo not shown) [Compound 72, N-(2,2,2-trifluoroethyl)-2-(3-(3-(trifluoromethyl)cyclohexyl)ureido)-[1,1′-biphenyl]-4-sulfonamide] was 100 to 1000 nM; that for `CC1(C)CCCC(NC(=O)Nc2cc(S(=O)(=O)NCC(F)(F)F)ccc2-c2ccccc2)C1` (stereo not shown) [Compound 73] was 1000 to 10000 nM.
The value for `O=C(Nc1cc(Cl)ccc1F)Nc1cc(S(=O)(=O)NCC(F)(F)F)ccc1-c1ccccc1` [Compound 74, 2-(3-(5-chloro-2-fluorophenyl)ureido)-N-(2,2,2-trifluoroethyl)-[1,1′-biphenyl]-4-sulfonamide] was 100 to 1000 nM.
As for `O=C(Nc1cc(S(=O)(=O)NCC(F)(F)F)ccc1-c1ccccc1)Nc1ccc(F)cc1C(F)(F)F` [Compound 76, 2-(3-(4-fluoro-2-(trifluoromethyl)phenyl)ureido)-N-(2,2,2-trifluoroethyl)-[1,1′-biphenyl]-4-sulfonamide], the IC50 lay in the range of 100 to 1000 nM.
The value for `O=C(Nc1cc(S(=O)(=O)NCC(F)(F)F)ccc1-c1ccccc1)Nc1ccncc1C(F)(F)F` [Compound 78, N-(2,2,2-trifluoroethyl)-2-(3-(3-(trifluoromethyl)pyridin-4-yl)ureido)-[1,1′-biphenyl]-4-sulfonamide] was 100 to 1000 nM; that for `O=C(Nc1cccc(Cl)n1)Nc1cc(S(=O)(=O)NCC(F)(F)F)ccc1-c1ccccc1` [Compound 79, 2-(3-(6-chloropyridin-2-yl)ureido)-N-(2,2,2-trifluoroethyl)-[1,1′-biphenyl]-4-sulfonamide] was 100 to 1000 nM; that for `O=C(Nc1cccc(CO)c1)Nc1cc(S(=O)(=O)NCC(F)(F)F)ccc1-c1ccccc1` [Compound 80, 2-(3-(3-(hydroxymethyl)phenyl)ureido)-N-(2,2,2-trifluoroethyl)-[1,1′-biphenyl]-4-sulfonamide] was 100 to 1000 nM.
With `O=C(Nc1cccc(O)c1)Nc1cc(S(=O)(=O)NCC(F)(F)F)ccc1-c1ccccc1` [Compound 81, 2-(3-(3-hydroxyphenyl)ureido)-N-(2,2,2-trifluoroethyl)-[1,1′-biphenyl]-4-sulfonamide], the IC50 was in the range of 100 to 1000 nM.
Consider `O=C(Nc1cc(Cl)ccn1)Nc1cc(S(=O)(=O)NCC(F)(F)F)ccc1-c1ccccc1` [Compound 82, 2-(3-(4-chloropyridin-2-yl)ureido)-N-(2,2,2-trifluoroethyl)-[1,1′-biphenyl]-4-sulfonamide], for which the IC50 was 100 to 1000 nM.
In the case of `C[S+]([O-])c1cccc(NC(=O)Nc2cc(S(=O)(=O)NCC(F)(F)F)ccc2-c2ccccc2)c1` (stereo not shown) [Compound 83, 2-(3-(3-(methylsulfinyl)phenyl)ureido)-N-(2,2,2-trifluoroethyl)-[1,1′-biphenyl]-4-sulfonamide] it was 100 to 1000 nM.
For the compound `O=C(Nc1cc(S(=O)(=O)NCC(F)(F)F)ccc1-c1ccccc1)Nc1cnccc1C(F)(F)F` [Compound 84, N-(2,2,2-trifluoroethyl)-2-(3-(4-(trifluoromethyl)pyridin-3-yl)ureido)-[1,1′-biphenyl]-4-sulfonamide], the IC50 was 100 to 1000 nM.

(Values after US10202339B2, “Therapeutic compounds and compositions” (AGIOS PHARMACEUTICALS, INC., priority 2012, dated 2019).)
